{"source": "patent US20050123583A1", "about": "“Medical use of reuterin” (priority 2000, published 2005)", "key": {"[1]": {"tested_on": "Escherichia coli (ATCC 25922), Pseudomonas aeruginosa (ATCC 27853), Staphylococcus aureus (ATCC 25923), and Bacillus subtillis (ATCC 6633)", "test": "Antimicrobial activity of reuterin, glutaraldehyde as control", "type": "cell-based", "excerpt": "Antimicrobial activity of reuterin was studied (J Biomed Mater Res 2002;61:360-369) and disclosed in the present invention, wherein glutaraldehyde is used as a control. The microorganisms tested in the study are Escherichia coli (ATCC 25922), Pseudomonas aeruginosa (ATCC 27853), Staphylococcus aureus (ATCC 25923), and Bacillus subtillis (ATCC 6633)."}, "[2]": {"tested_on": "3T3 fibroblasts (BALB/3T3 C1A31-1-1)", "test": "Cytotoxicity, light microscopic observation of cultured cells", "type": "cell-based", "details": "24 hours of culture", "method": "(§1) The cytotoxicity of reuterin was also studied (J Biomed Mater Res 2002;61:360-369) and disclosed in the present invention, wherein glutaraldehyde is again used as a control. The cytotoxicity of the test reagents (glutaraldehyde vs. reuterin) was evaluated in vitro using a mouse-derived established cell line of 3T3 fibroblasts (BALB/3T3 C1A31-1-1). The assay (light microscopic observation and MTT assay) was used to measure the proportion of viable cells following a test reagent-treated culture.\nIn the assay, 3T3 fibroblasts were seeded in 24-well plates at 5×10^4 cells/well in 1 ml Dulbecco's modified eagle medium (DMEM, Gibco 430-2800EG, Grand Island, N.Y., USA) with 10% fetal calf serum (FCS, Hyclone Laboratories, Logan, Ut., USA). The cell culture was maintained in a humidified incubator at 37° C. with 10% CO2 in air. Cells in log phase of growth were then exposed to a new DMEM medium drugged with varying concentrations of glutaraldehyde or reuterin. After 24 hours of culture, the growth media in the wells were removed and the cells were photographed using light microscopy. Subsequently, the cells were washed with phosphate buffered saline (PBS) twice and surviving cell numbers were then determined indirectly by 3-(4,5-dimethylthiazol-yl)-2,5-diphenyltetrazolium bromide (MTT, Sigma Chemical Co., St. Louis, Mo., USA) dye reduction."}, "[3]": {"tested_on": "3T3 fibroblasts (BALB/3T3 C1A31-1-1)", "test": "Cytotoxicity, MTT assay", "type": "cell-based, mouse", "details": "24 hours of culture", "method": "as §1\nIn the assay, 3T3 fibroblasts were seeded in 24-well plates at 5×10^4 cells/well in 1 ml Dulbecco's modified eagle medium (DMEM, Gibco 430-2800EG, Grand Island, N.Y., USA) with 10% fetal calf serum (FCS, Hyclone Laboratories, Logan, Ut., USA). […] Subsequently, the cells were washed with phosphate buffered saline (PBS) twice and surviving cell numbers were then determined indirectly by 3-(4,5-dimethylthiazol-yl)-2,5-diphenyltetrazolium bromide (MTT, Sigma Chemical Co., St. Louis, Mo., USA) dye reduction.\nThe MTT assay is based on the reduction of MTT, a yellow soluble dye by the mitochondrial succinate dehydrogenase to form an insoluble dark blue formazan product. […] Optical density readings were then performed using a multiwell scanning spectrophotometer (MRX Microplate Reader, Dynatech Laboratories Inc., Chantilly, Va., USA) at a wavelength of 570 nm. […]"}}}
{"compound": "O=CCCCC=O", "note": "[glutaraldehyde, reference compound]", "values": [{"measurement": "values for glutaraldehyde relative to those for reuterin", "setting": "[1]; growth-preventing and lethal concentrations", "value": "2˜3 times"}, {"measurement": "state of cultured cells in photomicrographs", "setting": "[2]; 0.05 ppm", "value": "confluent"}, {"measurement": "state of cultured cells in photomicrographs", "setting": "[2]; 5 ppm", "value": "all the cells cultured were found dead"}, {"measurement": "MTT50 concentration (concentration reducing optical density reading to half that of the control)", "setting": "[3]", "value": "approximately 4 ppm"}]}
{"compound": "O=CCCO", "note": "[reuterin, β-hydroxypropinoaldehyde]", "values": [{"measurement": "concentration that can prevent the growth of the tested microorganisms", "setting": "[1]; all four tested microorganisms", "value": "20 to 35", "unit": "ppm"}, {"measurement": "concentration that resulted in the death of the tested microorganisms", "setting": "[1]; all four tested microorganisms", "value": "40 to 50", "unit": "ppm"}, {"measurement": "sensitivity of tested microorganisms", "setting": "[1]; gram-positive and gram-negative bacteria", "value": "sensitive"}, {"measurement": "state of cultured cells in photomicrographs", "setting": "[2]; 15 ppm", "value": "confluent"}, {"measurement": "MTT50 concentration (concentration reducing optical density reading to half that of the control)", "setting": "[3]", "value": "about 20 ppm"}]}
